Experimental data taken from patent US9637490B2, “Antifungal 5,6-dihydro-4-[(difluoroethyl)phenyl]-4H-pyrrolo[1,2-α][1,4]benzodiazepine and 4-(difluoroethyl)phenyl-6H-pyrrolo[1,2-α][1,4]benzodiazepine derivatives” (Janssen Pharmaceutica NV, priority 2010, dated 2017).

Legend:
[1] = tested on: Microsporum canis (strain B68128); assay: Test D.4.1: activity against M. canis in guinea-pigs after oral treatment for 7 consecutive days; assay type: in vivo; design: key to semi-quantitative lesion score (mean): lesion score 0–3.5 by severity and size of lesion
How it was run: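 Female Duncan-Hartley guinea pigs, scarified depilated dorsum inoculated with 10^6 cfu M. canis spores in honey-water. Compounds in methocel 0.5%/Tween 80 vehicle given by oral gavage once daily for 7 days, starting ~2 h pre-infection; itraconazole reference. Lesions scored semi-quantitatively (0–3.5) on days 3–20 post-infection; mean scores.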

[2] = tested on: Scedosporium prolificans IHEM21157; assay: Antifungal activity in vitro (resazurin susceptibility screen), Inf. I; assay type: cell-based; details: Lomentospora prolificans, 37 °C, 48 hours, resa time 17 hours
How it was run: (§1)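 Compounds were tested in 2- or 4-fold serial dilution up to 64 μM against cryopreserved isolates (10^3 cfu/well) in RPMI-1640 with L-glutamine, 2% glucose and MOPS pH 7.0. Incubation ran 24 h at 37° C for yeasts to a week or more at 27° C for dermatophytes; growth was read by resazurin fluorescence (ex 550/em 590 nm).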

in vivo = assay: in vivo; design: species or system mice; details: mouse, po, 10 mg/kg
Description: Three animals (mean weight 20±7 g for mice and 275±20 for Guinea pigs) were used per dose route, time point and formulation.
For the oral (PO) solution formulation, compound was dissolved in a 20% hydroxypropyl-β-cyclodextrin (HP-β-CD) solution at a final concentration of 1 mg/ml. HCl was added to facilitate dissolution. After dissolution, the pH was brought up to 3.7 with NaOH. Mannitol was added to make the solution isotonic. For the PO suspension formulation, compound was suspended in 0.5% methocel at a final concentration of 1 mg/ml. The formulations were stored at room temperature, protected from light and analysed quantitatively with LC-MS/MS on the day of preparation. Stability of the formulations was checked on the day of dosing.
The animals were dosed orally by gastric intubation at 10 ml/kg to obtain a final dose 10 mg/kg. Three dosed animals were sacrificed for blood sampling at 15 and 30 min, 1, 2, 3, 4, 6, 8 and 24 h after PO dose administration as a solution and at 30 min, 1, 2, 4, 6, 8 and 24 h after PO dose administration as a suspension.
Blood was collected by multiple sampling from a tail vein into Multivette® 600 K3E tubes (Sarstedt). Samples were placed immediately at approximately 4° C. and plasma was obtained following centrifugation at 4° C. for 10 minutes at approximately 1900×g. All samples were shielded from daylight and stored at ≦−18° C. prior to analysis.
Plasma samples were analysed for dosed compound using a qualified research LC-MS/MS method. The key analytical performance (linearity, upper and lower limit of quantification, accuracy and precision) of the method was reported together with the plasma concentrations.
A limited pharmacokinetic analysis was performed using WinNonlin™ Professional (Version 5.2.1). A non-compartmental analysis using the lin/log trapezoidal rule with lin/log interpolation was used for all data.

Microsporum canis B68128 = assay: Antifungal activity in vitro (resazurin susceptibility screen), Inf. B; assay type: cell-based; details: Microsporum canis, B68128, Microsporum canis B68128; 27 °C, 9 days, resa time 24 hours
How it was run: as §1

SMILES: CC(F)(F)c1ccc(C2=NCc3c(Cl)cccc3-n3cccc32)cc1 [Compound 4, 7-chloro-4-[4-(1,1-difluoroethyl)phenyl]-6H-pyrrolo[1,2-a][1,4]benzodiazepine]
- semi-quantitative lesion score (mean) ([1]; oral 5 mg/kg once daily for 7 days, 3 DPI): 0
- semi-quantitative lesion score (mean) ([1]; oral 5 mg/kg once daily for 7 days, 5 DPI): 0.67
- semi-quantitative lesion score (mean) ([1]; oral 5 mg/kg once daily for 7 days, 7 DPI): 1.50
- semi-quantitative lesion score (mean) ([1]; oral 5 mg/kg once daily for 7 days, 10 DPI): 2.00
- semi-quantitative lesion score (mean) ([1]; oral 5 mg/kg once daily for 7 days, 12 DPI): 2.17
- semi-quantitative lesion score (mean) ([1]; oral 5 mg/kg once daily for 7 days, 14 DPI): 1.83
- semi-quantitative lesion score (mean) ([1]; oral 5 mg/kg once daily for 7 days, 17 DPI): 1.33
- semi-quantitative lesion score (mean) ([1]; oral 5 mg/kg once daily for 7 days, 20 DPI): 1.17
- activity compared with the terbinafine group (G2, 10 mg/kg) ([1]; oral 10 mg/kg once daily for 7 days): comparable to G2
- semi-quantitative lesion score (mean) ([1]; oral 10 mg/kg once daily for 7 days, 3 DPI): 0
- semi-quantitative lesion score (mean) ([1]; oral 10 mg/kg once daily for 7 days, 5 DPI): 0
- semi-quantitative lesion score (mean) ([1]; oral 10 mg/kg once daily for 7 days, 7 DPI): 0.33
- semi-quantitative lesion score (mean) ([1]; oral 10 mg/kg once daily for 7 days, 10 DPI): 1.00
- semi-quantitative lesion score (mean) ([1]; oral 10 mg/kg once daily for 7 days, 12 DPI): 1.50
- semi-quantitative lesion score (mean) ([1]; oral 10 mg/kg once daily for 7 days, 14 DPI): 1.50
- semi-quantitative lesion score (mean) ([1]; oral 10 mg/kg once daily for 7 days, 17 DPI): 0.50
- semi-quantitative lesion score (mean) ([1]; oral 10 mg/kg once daily for 7 days, 20 DPI): 0.33
- activity compared with the terbinafine group (G2, 10 mg/kg) ([1]; oral 40 mg/kg once daily for 7 days): remarkably more active than the terbinafine group
- semi-quantitative lesion score (mean) ([1]; oral 40 mg/kg once daily for 7 days, 3 DPI): 0
- semi-quantitative lesion score (mean) ([1]; oral 40 mg/kg once daily for 7 days, 5 DPI): 0.17
- semi-quantitative lesion score (mean) ([1]; oral 40 mg/kg once daily for 7 days, 7 DPI): 0.17
- semi-quantitative lesion score (mean) ([1]; oral 40 mg/kg once daily for 7 days, 10 DPI): 0.17
- semi-quantitative lesion score (mean) ([1]; oral 40 mg/kg once daily for 7 days, 12 DPI): 0.17
- semi-quantitative lesion score (mean) ([1]; oral 40 mg/kg once daily for 7 days, 14 DPI): 0
- semi-quantitative lesion score (mean) ([1]; oral 40 mg/kg once daily for 7 days, 17 DPI): 0.17
- semi-quantitative lesion score (mean) ([1]; oral 40 mg/kg once daily for 7 days, 20 DPI): 0.17
- IC50 [2]: 148 nM
- melting point: 215.2 to 217.6 °C
- bioavailability (in vivo): 20%
- IC50 (Microsporum canis B68128): 479 nM
